Results taken from US11667636B2, “Modulators of Mas-related G-protein receptor X2 and related products and methods” (Escient Pharmaceuticals, Inc., priority 2020, dated 2023).

Experiments:
human MRGPRX2 = target: T1, human MRGPRX2 (Homo sapiens, UniProt Q96LB1); assay: MRGPRX2 Activity: IP-One HTRF antagonist assay in CHO cells stably expressing human MRGPRX2, versus Cortistatin-14; assay type: cell-based; conditions: versus 0.3 uM Cortistatin-14 agonist, IP-1 HTRF, read-out: MRGPR2 Antagonist Activity
T1 construct: expressed in transfected cells
T1 sequence (Q96LB1 1-330): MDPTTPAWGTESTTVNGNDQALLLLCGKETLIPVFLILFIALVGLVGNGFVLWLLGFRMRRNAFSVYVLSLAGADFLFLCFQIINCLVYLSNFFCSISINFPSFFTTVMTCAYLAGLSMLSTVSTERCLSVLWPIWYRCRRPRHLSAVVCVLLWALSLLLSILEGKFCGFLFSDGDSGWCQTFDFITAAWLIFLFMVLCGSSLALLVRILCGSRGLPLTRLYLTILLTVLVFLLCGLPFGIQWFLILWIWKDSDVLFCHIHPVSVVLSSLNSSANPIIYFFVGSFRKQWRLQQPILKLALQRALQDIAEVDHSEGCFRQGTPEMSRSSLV
Experimental: CHO cells stably transfected to express human MRGPRX2 were maintained in an incubator at 37° C. with 5% CO2 and grown in F12 (HAM) media with 10% fetal bovine serum (FBS), 1% Glutamax, 1% penicillin/streptomycin, 800 μg/mL Geneticin (G418), and 300 μg/mL Hygromycin B. Cells were plated in a 384-well assay plate at 20,000 cells per well in 12 μL of Opti-MEM and kept in an incubator overnight. On the day of the assay, compounds solubilized at 10 mM in DMSO were added as a 10-point curve (30 uM final top concentration with 1:3 serial dilutions) using a Tecan D300E digital dispenser. Agonists were diluted in assay buffer (final concentrations of 5.7 mM Tris-HCl, 43 mM NaCl, 50 mM LiCl, pH=8) and 2 μL of the agonist Cortistatin-14 (CPC Scientific, catalog CORT-002) are added to each well. Final concentrations of agonists were 0.3 μM Cortistatin-14. Final concentrations of DMSO were kept consistent across the plate. Plates were incubated in the dark for 1 hr at 37° C. and then for 1 hr at room temperature. IP-1 standards and HTRF detection reagents were added according to the IP-One-Gq Kit purchased from Cisbio (part number 62IPAPEJ) and incubated in the dark for 1 hr at room temperature. The plate was read on a Molecular Devices SpectraMax iD5 plate reader. The HTRF ratio was calculated from the raw data and graphed using GraphPad Prism to calculate an IC50 value for each compound.
The activity ranges are denoted as follows: “+++++” denotes antagonist activity <50 nM; “++++” denotes antagonist activity between 51 and 100 nM; “+++” denotes activity between 101 and 500 nM; “++” denotes activity between 501 and 1000 nM; and “+” denotes activity >1000 nM

Human LAD2 cells = assay: Mast Cell Beta-Hexosaminidase Release Assay (Cortistatin-14 induced degranulation); assay type: cell-based; conditions: 500 nM Cortistatin-14, percent beta-hexosaminidase release, read-out: MRGPRX2 Antagonist Activity
Experimental: Human LAD2 cells (NIH) were maintained in an incubator at 37° C. with 5% CO2 and cultured in StemPro-34 serum-free media (Gibco 10639011) supplemented with 2 mM L-glutamine, 100 U/ml penicillin, […] streptomycin and 100 ng/ml SCF (Invitrogen PEP0860), at a concentration of 2-5×10^5 cells/mL, with hemidepletion every 1-2 weeks.
Cells were transferred to SCF-Free medium at 2.5×10^5 cells/mL and kept in an incubator overnight. On the day of the assay, cells were washed twice in Assay Buffer (final concentrations 10 mM HEPES, 137 mM NaCl, 5.6 mM D-glucose, 2.7 mM KCl, 1 mM MgCl, 1.8 mM CalCl2, 0.4 mM Na2HPO4.7H2O, 0.04% BSA, pH=7.4) and plated in a 96-well v-bottom plate at 20,000 cells per well in 80 μL Assay Buffer. Antagonist compounds solubilized at 10 mM in DMSO were diluted in Assay Buffer to 10× final desired concentrations as a 10-point curve (10 μM final top concentration with 1:3 serial dilutions) and 10 μL added per well. Plates were then incubated for 1 hour at 37° C. Agonists were diluted in Assay Buffer to 10× desired concentrations and 10 μL of the appropriate agonist added to each well. The final concentration of Cortistatin-14 (Tocris 3374) used in antagonist assays was 500 nM. Final concentrations of DMSO were kept consistent across the plate. Plates were then incubated in a warm air oven for 30 minutes at 37° C., followed by centrifugation at 4° C. for 5 minutes at 450×g. 50 μL supernatant from each well was then transferred to a 96-well flat bottom plate containing 100 μL substrate solution per well (3.5 mg/mL p-Nitrophenyl-N-acetyl-$-D-glucosaminide (Sigma 487052) in Citrate Buffer containing a final concentration of 40 mM Citric Acid, 20 mM Na2HPO4.7H2O, pH=4.5). To the cell pellets left in the remaining assay buffer, 150 μL 0.1% Triton-X-100 was then added to each well, resuspended by pipetting up and down, and 50 μL cell lysates transferred to a second 96-well flat bottom plate containing 100 μL substrate solution per well. Plates containing transferred supernatant and cell lysates were then incubated in a warm air oven for 90 minutes at 37° C. After incubation, 50 μL of 400 mM Glycine buffer (pH 10.7) was added into each well and the plate was read on a Molecular Devices SpectraMax iD5 plate reader (absorbance at 405 nm with reference filter at 620 nm). After background subtraction, the percentage degranulation (percent beta-hexosaminidase release) was calculated as 100×(supernatant values)/(supernatant+lysate values), followed by analysis using GraphPad Prism software to calculate an IC50 value for each compound.
The activity ranges are denoted as follows: “+++++” denotes antagonist activity <50 nM; “++++” denotes antagonist activity between 51 and 100 nM; “+++” denotes activity between 101 and 500 nM; “++” denotes activity between 501 and 1000 nM; and “+” denotes activity >1000 nM.

SMILES	IC50 (human MRGPRX2) [nM]	IC50 (Human LAD2 cells) [nM]
COc1ccc(C(=O)N[C@H]2CC[C@@H](Nc3cccc4nc(C(F)(F)F)cn34)CC2)cc1 [1-1]	< 50	< 50
COc1ccc(C(=O)N[C@@H]2CCC[C@H](Nc3cccc4sc(C(F)(F)F)cc34)C2)cc1 [Example 2, 4-methoxy-N-((1R,3S)-3-((2-(trifluoromethyl)benzo[b]thiophen-4-yl)amino)cyclohexyl)benzamide]	101 to 500	
COc1ccc(C(=O)N[C@@H]2CCC[C@H](Nc3cccc4oc(C(F)(F)F)nc34)C2)cc1 [Example 4, 4-methoxy-N-[(1R,3S)-3-[[2-(trifluoromethyl)-1,3-benzoxazol-4-yl]amino]cyclohexyl]benzamide]	501 to 1000	
N#Cc1cccc(C(=O)N[C@H]2CC[C@@H](Nc3cccc4sc(C(F)(F)F)cc34)CC2)c1 [Example 5, 3-cyano-N-((1 S,4S)-4-((2-(trifluoromethyl)benzo[b]thiophen-4-yl)amino)cyclohexyl)benzamide]	101 to 500	
Nc1nn(CC(F)F)cc1C(=O)N[C@H]1CC[C@@H](Nc2cccc3nc(C(F)(F)F)cn23)CC1 [Example 6, 3-amino-1-(2,2-difluoroethyl)-N-[4-[[2-(trifluoromethyl)imidazo[1,2-a]pyridin-5 yl]amino]cyclohexyl]pyrazole-4-carboxamide]	< 50	
Nc1nn(CC(F)(F)F)cc1C(=O)N[C@H]1CC[C@@H](Nc2cccc3nc(C(F)(F)F)cn23)CC1 [Example 7, 3-amino-1-(2,2,2-trifluoroethyl)-N-[4-[[2-(trifluoromethyl)imidazo[1,2-a]pyridin-5-yl]amino]cyclohexyl]pyrazole-4-carboxamide]	< 50	
O=C(N[C@H]1CC[C@@H](Nc2cccc3nc(C(F)(F)F)cn23)CC1)c1cn(CC(F)F)nc1C(F)F [Example 8, 1-(2,2-difluoroethyl)-3-(difluoromethyl)-N-[4-[[2-(trifluoromethyl)imidazo[1,2-a]pyridin-5-yl]amino]cyclohexyl]pyrazole-4-carboxamide]	< 50	
O=C(N[C@H]1CC[C@@H](Nc2cccc3nc(C(F)(F)F)cn23)CC1)c1cn(CC(F)(F)F)nc1C(F)F [Example 9, 3-(difluoromethyl)-1-(2,2,2-trifluoroethyl)-N-[4-[[2-(trifluoromethyl)imidazo[1,2-a]pyridin-5-yl]amino]cyclohexyl]pyrazole-4-carboxamide]	< 50	
O=C(N[C@H]1CC[C@@H](Nc2cccc3nc(C(F)(F)F)cn23)CC1)c1cn(CC(F)F)nc1Cl [Example 11, 3-chloro-1-(2,2-difluoroethyl)-N-((1 s,4s)-4-((2-(trifluoromethyl)imidazo[1,2-a]pyridin-5-yl)amino)cyclohexyl)-1H-pyrazole-4-carboxamide]	< 50	
O=C(N[C@H]1CC[C@@H](Nc2cccc3nc(C(F)(F)F)cn23)CC1)c1cn(CC(F)(F)F)nc1Cl [Example 12, 3-chloro-1-(2,2,2-trifluoroethyl)-N-((1s,4s)-4-((2-(trifluoromethyl)imidazo[1,2-a]pyridin-5-yl)amino)cyclohexyl)-1H-pyrazole-4-carboxamide]	< 50	

Second part, the molecule after the results:

IC50 (human MRGPRX2) [nM]	IC50 (Human LAD2 cells) [nM]	SMILES
51 to 100	< 50	CS(=O)(=O)Nc1cccc(C(=O)N[C@H]2CC[C@@H](Nc3cccc4sc(C(F)(F)F)cc34)CC2)c1 [2-6]
< 50	< 50	O=C(N[C@H]1CC[C@@H](Nc2cccc3nc(C(F)(F)F)cn23)CC1)c1cccc2cn[nH]c12 [2-10]
< 50	< 50	O=C(N[C@H]1CC[C@@H](Nc2cccc3nc(C(F)F)cn23)CC1)c1ccnc2[nH]ccc12 [2-24]
< 50	< 50	COc1ccc(C(=O)N[C@H]2CC[C@@H](Nc3cccc4nc(C(F)F)cn34)CC2)c(NCC(F)(F)F)c1 [2-28]
	< 50	O=C(N[C@H]1CC[C@@H](Nc2cccc3nc(C(F)(F)F)cn23)CC1)c1cccc2cnsc12 [2-52]
	< 50	O=C(N[C@H]1CC[C@@H](Nc2cccc3nc(C(F)F)cn23)CC1)c1ccc(NCC(F)F)cc1 [2-61]
	< 50	CNc1ccccc1C(=O)N[C@H]1CC[C@@H](Nc2cccc3nc(C(F)(F)F)cn23)CC1 [2-71]
< 50	< 50	Cn1cc(C(=O)N[C@H]2CC[C@@H](Nc3cccc4nc(C(F)(F)F)cn34)CC2)c(Cl)n1 [2-137]
< 50	< 50	O=C(N[C@H]1CC[C@@H](Nc2cccc3nc(C(F)F)cn23)CC1)c1ccccc1NCC(F)F [2-142]
< 50	< 50	O=C(N[C@H]1CC[C@@H](Nc2cccc3nc(C(F)F)cn23)CC1)c1ccccc1NCC(F)(F)F [2-143]
< 50	< 50	O=C(N[C@H]1CC[C@@H](Nc2cccc3nc(C(F)(F)F)cn23)CC1)c1cccc2c(F)n[nH]c12 [2-153]
< 50	< 50	Cn1cc(C(=O)N[C@H]2CC[C@@H](Nc3cccc4nc(C(F)(F)F)cn34)CC2)c2ccccc21 [2-160]
< 50	< 50	O=C(N[C@H]1CC[C@@H](Nc2cccc3nc(C(F)(F)F)cn23)CC1)c1cccc(NCC(F)F)c1 [2-178]
	< 50	O=C(N[C@H]1CC[C@@H](Nc2cccc3nc(C(F)F)cn23)CC1)c1ccccc1NCCF [2-222]
< 50	< 50	O=C(N[C@H]1CC[C@@H](Nc2cccc3nc(C(F)(F)F)cn23)CC1)c1cn(C(F)F)nc1C(F)F [2-228]
101 to 500		O=C(N[C@H]1CC[C@@H](Nc2cccc3nc(C(F)(F)F)cn23)CC1)c1noc2ccccc12 [2-290]
< 50		Cn1cc(C(=O)N[C@H]2CC[C@@H](Nc3cccc4nc(C(F)(F)F)cn34)CC2)c2c(Cl)cccc21 [2-291]
101 to 500		CCn1ncc(C(=O)N[C@H]2CC[C@@H](Nc3cccc4nc(C(F)(F)F)cn34)CC2)c1Cl [2-292]
< 50		CCn1cc(C(=O)N[C@H]2CC[C@@H](Nc3cccc4nc(C(F)(F)F)cn34)CC2)c(Cl)n1 [2-293]
< 50		CC(C)n1cc(C(=O)N[C@H]2CC[C@@H](Nc3cccc4nc(C(F)(F)F)cn34)CC2)c(Cl)n1 [2-294]
51 to 100		O=C(N[C@H]1CC[C@@H](Nc2cccc3nc(C(F)F)cn23)CC1)c1cn(C(F)(F)F)nc1Cl [2-295]
< 50		O=C(N[C@H]1CC[C@@H](Nc2cccc3nc(C(F)(F)F)cn23)CC1)c1cn(C(F)F)nc1Cl [2-297]
